Activity calls are given as the source filed them. No cut-off for these calls is given here.
Key:
Coxsackievirus A16 [1] = test: Antiviral activity against Coxsackievirus A16 TA271 infected in ICR mouse assessed as mild alveolar fibrosis in heart at 2 mg/kg, im after 5 days post infection by H and E staining based histopathological analysis; type: functional, organism-based
Coxsackievirus A16 [2] = test: (§1) Antiviral activity against Coxsackievirus A16 TA271 infected in RD cells at release stage assessed as cell detachment at 0.08 uM/L preincubated with cells for 1 hr followed by replacement of fresh medium containing compounds after 5 hrs post infection and further incubated for 16 hrs post infection by inverted microscopic analysis; type: functional, cell-based
Coxsackievirus A16 [3] = test: as §1, with “appearance of rounded cells” for “cell detachment”; type: functional, cell-based
Coxsackievirus A16 [4] = test: Antiviral activity against Coxsackievirus A16 TA271 infected in ICR mouse assessed as reduction in inflammatory cell infiltration in spinal muscle at 2 mg/kg, im after 5 days post infection by H and E staining based histopathological analysis; type: functional, organism-based
Coxsackievirus A16 [5] = test: Antiviral activity against Coxsackievirus A16 TA271 infected in ICR mouse assessed as mild alveolar wall thickening in heart at 2 mg/kg, im after 5 days post infection by H and E staining based histopathological analysis; type: functional, organism-based
Coxsackievirus A16 [6] = test: Antiviral activity against Coxsackievirus A16 TA271 infected in RD cells assessed as effect on viral load at replication stage at 0.08 uM/L preincubated for 1 hr followed by replacement of medium containing compound for 5 hrs and measured after 48 hrs post infection by RT-PCR analysis; type: functional, cell-based
Coxsackievirus A16 [7] = test: Antiviral activity against Coxsackievirus A16 TA271 infected in RD cells assessed as log reduction in viral genome copies at 0.08 uM/L preincubated with viral suspension for 2 hrs followed by cell addition and measured at 24 hrs post infection by RT-PCR analysis; type: functional
Coxsackievirus A16 [8] = test: Antiviral activity against Coxsackievirus A16 TA271 infected in human RD cells assessed as inhibition of virus-induced cytopathic effect preincubated with viral suspension for 2 hrs followed by cell addition and measured after 24 hrs by CCK-8 assay; type: functional, cell-based
[9] = Toxicity in ICR mouse infected with Coxsackievirus A16 TA271 assessed as increase in body weight at 2 mg/kg, im and measured every day; type: organism-based; conditions: in vivo
Coxsackievirus A16 [10] = test: Antiviral activity against Coxsackievirus A16 TA271 infected in ICR mouse assessed as reduction in viral load in hind limb muscle at 2 mg/kg, im after 3 to 5 days post infection by RT-PCR analysis; type: functional, organism-based
Coxsackievirus A16 [11] = test: Antiviral activity against Coxsackievirus A16 TA271 infected in ICR mouse assessed as reduction in inflammatory cell infiltration in lung at 2 mg/kg, im after 5 days post infection by H and E staining based histopathological analysis; type: functional, organism-based
Coxsackievirus A16 [12] = test: Antiviral activity against Coxsackievirus A16 TA271 infected in ICR mouse assessed as increase in inflammatory cell proliferation in spinal muscles at 0.08 uM/L preincubated with viral suspension for 2 hrs followed by intramuscular administration after 5 days post infection by H and E staining based histopathological analysis; type: functional
Coxsackievirus A16 [13] = test: Antiviral activity against Coxsackievirus A16 TA271 infected in ICR mouse assessed as mild alveolar wall thickening in hind limb muscle at 2 mg/kg, im after 5 days post infection by H and E staining based histopathological analysis; type: functional, organism-based
Coxsackievirus A16 [14] = test: (§2) Antiviral activity against Coxsackievirus A16 TA271 infected in RD cells at replication stage assessed as appearance of rounded cells at 0.08 uM/L 1 hr post-infection viral inoculum was removed and cells incubated with medium containing compound and measured after 5 hrs by inverted microscopic analysis; type: functional, cell-based
Coxsackievirus A16 [15] = test: Antiviral activity against Coxsackievirus A16 TA271 infected in ICR mouse assessed as reduction in viral load in heart at 0.08 uM/L preincubated with viral suspension for 2 hrs followed by intramuscular administration after 3 to 5 days post infection by RT-PCR analysis; type: functional
Coxsackievirus A16 [16] = test: as §2, with “cell shrinkage” for “rounded cells”; type: functional, cell-based
Coxsackievirus A16 [17] = test: Antiviral activity against Coxsackievirus A16 TA271 infected in ICR mouse assessed as reduction in virus-induced IFN-gamma level at 0.08 uM/L preincubated with viral suspension for 2 hrs followed by intramuscular administration after 3 days post infection by ELISA; type: functional
Coxsackievirus A16 [18] = test: Antiviral activity against Coxsackievirus A16 TA271 infected in RD cells at preinfection stage assessed as appearance of rounded cells at 0.08 uM/L preincubated with cells for 3 hrs followed by viral infection and measured after 1 hr by inverted microscopic analysis; type: functional, cell-based
[19] = Cytotoxicity against human RD cells assessed as reduction in cell viability after 12 hrs by CCK8 assay; type: cell-based
Coxsackievirus A16 [20] = test: Antiviral activity against Coxsackievirus A16 TA271 infected in RD cells assessed as inhibition of viral adsorption/viral entry by measuring increase in cell viability at 0.08 uM/L after 1 hr by inverted microscopic analysis; type: functional, cell-based
Coxsackievirus A16 [21] = test: Antiviral activity against Coxsackievirus A16 16038 infected in RD cells assessed as reduction in viral genome copies at 0.08 uM/L preincubated with viral suspension for 2 hrs followed by cell addition and measured at 24 hrs post infection by RT-PCR analysis; type: functional, cell-based
[22] = Cytotoxicity against human RD cells assessed as cell survival at <5 uM after 24 hrs by CCK8 assay relative to control; type: cell-based; conditions: read-out: Activity
Coxsackievirus A16 [23] = test: Antiviral activity against Coxsackievirus A16 TA271 infected in ICR mouse assessed as mild alveolar fibrosis in spinal muscle at 2 mg/kg, im after 5 days post infection by H and E staining based histopathological analysis; type: functional, organism-based
Coxsackievirus A16 [24] = test: Antiviral activity against Coxsackievirus A16 LW2 infected in RD cells assessed as reduction in viral genome copies at 0.08 uM/L preincubated with viral suspension for 2 hrs followed by cell addition and measured at 24 hrs post infection by RT-PCR analysis; type: functional, cell-based
[25] = Selectivity index, ratio of CC50 for cytotoxicity against human RD cells to EC50 for antiviral activity against Coxsackievirus A16 TA271 infected in human RD cells; type: toxicity, cell-based; conditions: read-out: Ratio CC50/EC50
Coxsackievirus A16 [26] = test: Antiviral activity against Coxsackievirus A16 TA271 infected in ICR mouse assessed as reduction in muscle fiber breakage in heart at 2 mg/kg, im after 5 days post infection by H and E staining based histopathological analysis; type: functional, organism-based
Coxsackievirus A16 [27] = test: as §2, with “increase in intracytoplasmic granules” for “appearance of rounded cells”; type: functional, cell-based
Mus musculus = test: Effect on IFN-gamma level in ICR mouse at 2 mg/kg, administered intramuscularly by ELISA; type: functional, organism-based
Coxsackievirus A16 [28] = test: Antiviral activity against Coxsackievirus A16 TA271 infected in ICR mouse assessed as reduction in inflammatory cell infiltration in hind limb muscle at 2 mg/kg, im after 5 days post infection by H and E staining based histopathological analysis; type: functional, organism-based
Coxsackievirus A16 [29] = test: as §1, with “increase in intracytoplasmic granules” for “cell detachment”; type: functional, cell-based
Coxsackievirus A16 [30] = test: Antiviral activity against Coxsackievirus A16 TA271 infected in RD cells at preinfection stage assessed as increase in intracytoplasmic granules at 0.08 uM/L preincubated with cells for 3 hrs followed by viral infection and measured after 1 hr by inverted microscopic analysis; type: functional, cell-based
[31] = Toxicity in ICR mouse infected with Coxsackievirus A16 TA271 assessed as increase in body weight at 0.08 uM/L preincubated with viral suspension for 2 hrs followed by intramuscular administration and measured every day; conditions: in vivo, im

## CC(=O)OC(CC=C(C)C)C1=CC(=O)c2c(O)ccc(O)c2C1=O (stereo not drawn)
Coxsackievirus A16 [1]
  Activity: Active
Coxsackievirus A16 [2]
  Activity: inactive
Coxsackievirus A16 [3]
  Activity: inactive
Coxsackievirus A16 [4]
  Activity: Active
Coxsackievirus A16 [5]
  Activity: Active
Coxsackievirus A16 [6]
  Activity: inactive
Coxsackievirus A16 [7]
  LCK: >2
Coxsackievirus A16 [8]
  Activity: Dose-dependent effect
Coxsackievirus A16 [8]; Enterovirus A
  EC50: 0.04 µM
[9]
  Activity: Non-Toxic
Coxsackievirus A16 [10]
  Activity: Active
Coxsackievirus A16 [11]
  Activity: Active
Coxsackievirus A16 [12]
  Activity: Active
Coxsackievirus A16 [13]
  Activity: Active
Coxsackievirus A16 [14]
  Activity: inactive
Coxsackievirus A16 [15]
  Activity: Active
Coxsackievirus A16 [16]
  Activity: inactive
Coxsackievirus A16 [17]
  Activity: Active
Coxsackievirus A16 [18]
  Activity: inactive
[19]
  CC50 at 12 h: 9.4 µM
Coxsackievirus A16 [20]
  inhibition: Active
Coxsackievirus A16 [21]
  Activity: Active
[22]
  viability at 24 h: > 90%
Coxsackievirus A16 [23]
  Activity: Active
Coxsackievirus A16 [24]
  Activity: Active
[25]
  selectivity ratio: 235
Coxsackievirus A16 [26]
  Activity: Active
Coxsackievirus A16 [27]
  Activity: inactive
Mus musculus
  Activity: inactive
Coxsackievirus A16 [28]
  Activity: Active
Coxsackievirus A16 [29]
  Activity: inactive
Coxsackievirus A16 [30]
  Activity: inactive
[31]
  Activity: Non-Toxic

— ChEMBL document CHEMBL4334442, “Effects of Acetylshikonin on the Infection and Replication of Coxsackievirus A16 in Vitro and in Vivo” (J Nat Prod, 2019)
